In article PMC6272185 (Molecules, 2015):
Converted amounts (≈) assume the structure as drawn. Read-outs that look alike come from different tables or passages of the source.

Experiments:
M. tuberculosis H37Rv = experiment: microbe, parasite or virus in culture; assay type: cell-based, Mycobacterium tuberculosis; conditions: Mycobacterium tuberculosis
[1] = tested on: TNF-α production by LPS-stimulated RAW 264.7 macrophages; experiment: Inhibition of TNF-α production by LPS-stimulated macrophages (ELISA); assay type: cell-based, murine; conditions: for IC50: Mus musculus, RAW264.7, LPS (1 µg/mL)-stimulated RAW 264.7, 24 h, mean ± SD, n = 3, read-out: IC50 TNF-α
M. bovis BCG = experiment: microbe, parasite or virus in culture; assay type: cell-based, Mycobacterium bovis BCG; conditions: Mycobacterium tuberculosis variant bovis BCG, BCG, 168 h; for MIC50: read-out: MIC50 M. bovis BCG; for MIC90: read-out: MIC90 M. bovis BCG
[2] = tested on: NO production by LPS-stimulated RAW 264.7 macrophages; experiment: Inhibition of NO production by LPS-stimulated macrophages (Griess); assay type: cell-based, murine; conditions: mean ± SD, n = 3
[3] = Macrophage cytotoxicity, LDH release assay; assay type: cell-based, murine; conditions: mouse, RAW 264.7 macrophages stimulated with LPS; LPS-stimulated RAW 264.7, LDH release; mean ± SD, n = 3
Experimental: Cytotoxic effects of chalcone samples on RAW 264.7 cell viability in cultures stimulated with LPS were determined using the LDH (lactate dehydrogenase) release assay as previously described [58]. Cytoplasmic enzyme LDH release into cell culture supernatants was detected using a commercial LDH kit (Doles, GO, Brazil). Cell death was expressed as percentage of LDH release, which was calculated using the following formula: percentage of LDH release = 100 × (test LDH release − spontaneous release)/(maximum release − spontaneous release). The maximum release was determined following dissolution of cell monolayers using 1% (vol/vol) Triton X-100. The spontaneous release was determined in supernatants from cultures incubated in the presence of LPS and DMSO, used as a solvent for chalcone samples.

[4] = tested on: IL-1β production by LPS-stimulated RAW 264.7 macrophages; experiment: Inhibition of IL-1β production by LPS-stimulated macrophages (ELISA); assay type: cell-based, murine; conditions: for IC50: Mus musculus, RAW264.7, 24 h, read-out: IC50 IL-1β
Experimental: (§1) Murine RAW 264.7 macrophage cell line (American Type Culture Collection, Manassas, VA, USA), was cultured in Dulbecco’s modified Eagle’s medium (DMEM-F12) supplemented with 10% Fetal Bovine Serum (FBS) and gentamicin (50 µg/mL) in 5% CO2 atmosphere at 37 °C. For experiments, the cells were seeded in 96-well plates (1 × 10^5 cells/well) and incubated for 24 h at 37 °C. For macrophage stimulation, the cell cultures were treated with LPS (1 µg/mL) and incubated for additional 24 h in the presence or absence of the chalcone samples (samples 1–41) that were used at concentrations of 100, 20, 4 and 0.8 µg/mL. In some experiments, a nitric oxide (NO) inhibitor, L-NMMA (20 μg/mL), was used as a positive control of NO inhibition, and a non-steroidal anti-inflammatory drug indomethacin, known to inhibit production of prostaglandins, was used as a positive control of PGE2 inhibition.
(§2) The frozen culture supernatants samples were thawed and immediately analyzed using commercially available enzyme-linked immunosorbent assay (ELISA) kits to measure TNF-α, IL-1β (BD Biosciences) and PGE2 (R&D Systems, Minneapolis, MN, USA), according to the manufacturer’s instructions. Standard curves for each mediator were generated using reference cytokine concentrations supplied by the manufacturer. Nitric oxide (NO) generation was assessed by the Griess method to measure nitrites, which are stable breakdown NO products.

[5] = tested on: PGE2 production by LPS-stimulated RAW 264.7 macrophages; experiment: Inhibition of PGE2 production by LPS-stimulated macrophages (ELISA); assay type: cell-based, murine; conditions: for IC50: Mus musculus, RAW264.7, 24 h, read-out: IC50 PGE2; for prostaglandin (PGE2) value: only LPS-treated cells 436.0 ± 5.8 pg/mL
Experimental: as §1, §2

M. tuberculosis M299 = experiment: microbe, parasite or virus in culture; assay type: cell-based, Mycobacterium tuberculosis; conditions: Mycobacterium tuberculosis, M299, 120 h
[6] = H37RV, 120 h, read-out: MIC50 M. tuberculosis H37Rv
[7] = Mus musculus, RAW264.7, 24 h, LPS (1 µg/mL)-stimulated RAW 264.7, 24 h, read-out: IC50 NO
[8] = LPS (1 µg/mL)-stimulated RAW 264.7, 24 h, read-out: IC50 NO
[9] = Mus musculus, RAW264.7, 24 h, read-out: IC50 NO, LPS (1 µg/mL)-stimulated RAW 264.7, 24 h
[10] = Table 5, same values as M. tuberculosis H37Rv in Table 3, read-out: MIC50

Row | SMILES | MIC90 (M. tuberculosis H37Rv; H37RV, 120 h) [µM] | MIC50 (M. tuberculosis H37Rv; [6]) [µM] | IC50 [1] [µM] | MIC50 (M. bovis BCG) [µM] | MIC90 (M. bovis BCG) [µM] | IC50 [2, 7] [µM] | IC50 [3] [µM] | IC50 [2, 8] [µM] | IC50 [2, 9] [µM] | IC50 [4] [µM] | IC50 [5] [µM] | MIC50 (M. tuberculosis H37Rv; [10]) [µM] | inhibition of TNF-α ([1]; LPS-stimulated RAW 264.7) | inhibition of IL-1β ([4]; LPS-stimulated RAW 264.7) | MIC50 (M. tuberculosis M299) [µM] | MIC90 (M. tuberculosis M299) [µM] | prostaglandin (PGE2) value ([5]; 0.0004 µg/mL) [pg/mL] | prostaglandin (PGE2) value ([5]; 0.004 µg/mL) [pg/mL] | prostaglandin (PGE2) value ([5]; 0.04 µg/mL) [pg/mL] | prostaglandin (PGE2) value ([5]; 0.2 µg/mL) [pg/mL]
1 | O=C(/C=C/c1ccccn1)c1ccccc1 [Chalcone 7] | > 478 | > 478 | > 478 | 35.8 ± 7.2 (≈ 7.49 µg/mL) | 441 ± 9.5 (≈ 92.2 µg/mL) | > 478 | > 478 |  |  |  |  |  |  |  |  |  |  |  |  | 
2 | O=C(/C=C/c1ccc2c(c1)OCO2)c1ccc(Br)cc1 [Chalcone 12] |  |  | > 302 | 84.9 ± 4.7 (≈ 28.1 µg/mL) | 229.6 ± 2.2 (≈ 76 µg/mL) |  | > 302 | 19.6 ± 3.3 | < 21 | > 302 | 50.3 ± 0.3 |  |  |  |  |  |  |  |  | 
3 | Cc1ccc(C(=O)/C=C/c2ccc(F)cc2)cc1 [Chalcone 17] | > 416 | 63.8 ± 6.2 (≈ 15.3 µg/mL) | > 416 | 61.5 ± 7.6 (≈ 14.8 µg/mL) | 388 ± 7.3 (≈ 93.3 µg/mL) | 30.8 ± 4.5 | 290 ± 4.3 |  |  | > 416 | > 417 | 63.8 ± 6.2 (≈ 15.3 µg/mL) |  |  |  |  |  |  |  | 
4 | Cc1ccc(C(=O)/C=C/c2ccc(N(C)C)cc2)cc1 [Chalcone 19] | > 377 | 112 ± 6.4 (≈ 29.8 µg/mL) | > 377 | 56.4 ± 4.4 (≈ 15 µg/mL) | 322.7 ± 1.7 (≈ 85.6 µg/mL) | 27.8 ± 3.8 | > 377 |  |  | > 377 | > 377 | 112 ± 6.4 (≈ 29.8 µg/mL) |  |  |  |  |  |  |  | 
5 | Cc1ccc(C(=O)/C=C/c2ccc3c(c2)OCO3)cc1 [Chalcone 20] |  |  | > 376 | > 376 | > 376 | 30.1 ± 1.2 | > 376 |  |  | > 376 | 147.4 ± 1.2 |  |  |  |  |  |  |  |  | 
6 | COc1ccc(/C=C/C(=O)c2ccc(C)cc2)cc1 [Chalcone 21] | 368 ± 5.2 (≈ 92.9 µg/mL) | 66.9 ± 6.2 (≈ 16.9 µg/mL) | > 396 | 33.3 ± 5.4 (≈ 8.4 µg/mL) | 362 ± 5.9 (≈ 91.4 µg/mL) | 30.6 ± 4.7 | > 396 |  |  | > 396 | 50.1 ± 1 | 66.9 ± 6.2 (≈ 16.9 µg/mL) |  |  |  |  |  |  |  | 
7 | COc1ccc(C(=O)/C=C/c2ccc(Cl)cc2)cc1 [Chalcone 26] |  |  | > 367 | 91.2 ± 5 (≈ 24.9 µg/mL) | 287 ± 7.8 (≈ 78.2 µg/mL) | 25.3 ± 3.9 | > 367 |  |  | > 367 | 57.7 ± 1.9 |  |  |  |  |  |  |  |  | 
8 | COc1ccc(C(=O)/C=C/c2ccc3c(c2)OCO3)cc1 [Chalcone 28] |  |  | > 354 | > 354 | > 354 |  | > 354 | 14.9 ± 4.1 | < 21 | > 354 | 22.1 ± 0.63 |  |  |  |  |  |  |  |  | 
9 | O=C(/C=C/c1ccc([N+](=O)[O-])cc1)c1ccccc1 [Chalcone 37] |  |  | > 395 | > 395 | > 395 | 58.6 ± 4.5 | > 395 |  |  | > 395 | 322 ± 3.7 |  |  |  |  |  |  |  |  | 
10 | Cc1ccc(C(=O)/C=C/c2ccc([N+](=O)[O-])cc2)cc1 [Chalcone 39] | > 373 | > 373 | > 373 | 28.1 ± 5.4 (≈ 7.51 µg/mL) | 344 ± 6.3 (≈ 92 µg/mL) | 114 ± 4.8 | 329 ± 3.9 |  |  |  |  |  |  |  |  |  |  |  |  | 
11 | COc1ccc(C(=O)/C=C/c2ccc([N+](=O)[O-])cc2)cc1 [Chalcone 40] | 352 ± 5.9 (≈ 99.7 µg/mL) | 131.7 ± 1.3 (≈ 37.3 µg/mL) | > 353 | 14.5 ± 3.1 (≈ 4.11 µg/mL) | > 353 |  | > 353 | 13.5 ± 5.5 | < 21 | > 353 | > 413 | 131.7 ± 1.3 (≈ 37.3 µg/mL) |  |  |  |  |  |  |  | 
12 | O=C(/C=C/c1ccc([N+](=O)[O-])cc1)c1ccccc1Cl [Chalcone 41] | 275 ± 6.7 (≈ 79.2 µg/mL) | 82.1 ± 4.3 (≈ 23.6 µg/mL) | 68.5 ± 3.3 | 30.5 ± 4.7 (≈ 8.77 µg/mL) | 247 ± 7.2 (≈ 71 µg/mL) |  | > 348 | 11.2 ± 5 | < 21 | 13.5 ± 3.9 | 67.4 ± 2.2 | 82.1 ± 4.3 (≈ 23.6 µg/mL) | strongly inhibit | potent inhibitors |  |  |  |  |  | 
13 | CO[C@H]1/C=C/O[C@@]2(C)Oc3c(C)c(O)c4c(O)c(c(/C=N/N5CCN(C)CC5)c(O)c4c3C2=O)NC(=O)/C(C)=C\C=C\[C@H](C)[C@H](O)[C@@H](C)[C@@H](O)[C@@H](C)[C@H](OC(C)=O)[C@@H]1C [Rifampicin, rifampicin, reference compound] | 0.15 ± 0.08 (≈ 0.123 µg/mL) | 0.11 ± 0.02 (≈ 0.0905 µg/mL) |  | 0.01 ± 0.03 (≈ 0.00823 µg/mL) | 0.2 ± 0.01 (≈ 0.165 µg/mL) |  |  |  |  |  |  |  |  |  | 0.2 ± 0.18 (≈ 0.165 µg/mL) | 3.3 ± 0.16 (≈ 2.72 µg/mL) |  |  |  | 
14 | COc1ccc2c(c1)c(CC(=O)O)c(C)n2C(=O)c1ccc(Cl)cc1 [indomethacin, reference compound] |  |  |  |  |  |  |  |  |  |  |  |  |  |  |  |  | 340.7 ± 1.1 | 271.6 ± 2.6 | 171.8 ± 1.2 | 11.8 ± 1.9
